Measured values from US6878388B1, “Vanadium compounds for treating proliferative cell disorders” (Parker Hughes Institute, priority 2000, dated 2005).
Read-outs that look alike come from different tables or passages of the source.

Tests used:
[1] = tested on: U138 human glioblastoma cells; assay: MTT cytotoxicity assay, U138; type: cell-based; conditions: 48 h incubation, 3 independent experiments, read-out: IC50 (mean ± SE)
Experimental: (§1) Human brain tumor cells lines U87 MG (Cat.# HTB-14), U118 MG (Cat. # HTB-15), U138 (Cat # HTB-16), U373 MG (CAT. # HTB-17), and T98G (Cat. # CRL-1690) and breast cancer cell lines BT-20 (Cat # HTB-19), MDA-MB-231 (Cat # HTB-26), MDA-MB-361 (Cat # HTB-27), and MCF-7 (Cat # HTB-22) were obtained from American Type Culture Collection (ATCC, Rockville, Md.) and maintained as continuous cell lines in Dulbecco's modified Eagles's medium (U87, U118, U138, U373, T98 and BT-20) or Leibovitz's L-15 medium (MDA-MB-231 and MDA-MB-361). All media were supplemented with 10% fetal calf serum (FCS), 4 mM glutamine, 100 U/ml penicillin G and […] streptomycin sulfate. All tissue culture reagents were obtained from Life Technologies Inc. (GIBCO-BRL, Gaithersburg, Md.).
(§2) The cytotoxicity of [VO(SO4)(Me2-Phen)2] against human cancer cell lines was analyzed using the MTT (3-[4,5-dimethylthiazol-2-yl]-2,5-diphenyl tetrazolium bromide) assay (Boehringer Mannheim Corp., Indianapolis, Ind.) as described previously (Narla et al., Clin Cancer Res., 4: 1405-1414, 1998). […] The absorbance at 540 nm (a reference wavelength of 690 nm was used) of the solution in each well was measured using a microplate reader (Labsystems). The percent survival and the IC50 values were calculated using Graphpad Prism v2.0 (Graphpad Software, Inc., San Diego, Calif.) as described previously (Narla et al., Supra). […]

[2] = tested on: MDA-MB-361 breast cancer cells; assay: MTT cytotoxicity assay, MDA-MB-361; type: cell-based, human; conditions: MDA-MB-361 cells, 48 h incubation, 3 independent experiments, read-out: IC50 (mean ± SE)
Experimental: as §1, §2

[3] = tested on: MDA-MB-231 breast cancer cells; assay: In vitro adhesion assay to ECM proteins, MDA-MB-231; type: cell-based, human; conditions: 16 h pretreatment, mean ± SE of 3 experiments
Experimental: In vitro adhesion assays were used to evaluate the effects of [VO(SO4)(Me2-Phen)2] on the adhesive properties of U87 and MDA-MD-231 cells as described previously (Narla et al., Clin Cancer Res, 4: 2463-2471, 1998). The plates for the adhesion assays were pre-coated with the extracellular matrix (ECM) proteins laminin, fibronectin, vitronectin and type IV collagen (each at a final concentration of 1 μg/ml in PBS) overnight at 4° C. and dried. Exponentially-growing cells (as described in the previous Example) were incubated with [VO(SO4)(Me2-Phen)2] at concentrations ranging from 0.5 μM to 25 μM for 16 hours in a humidified 5% CO2 atmosphere. The cells were then detached from the flasks with 0.05% trypsin (Life Technologies), resuspended in medium, incubated at 37° C. for 2 hours to allow them to recover from the trypsinization stress and examined for their ability to adhere to the plates precoated with ECM proteins. Cells were centrifuged, washed twice with serum-free medium, counted and resuspended in serum-free medium at a final concentration of 2.5×10^5 cells/ml. The cell suspension was added to each well in aliquots of 100 μl and the cells were allowed to adhere for one hour at 37° C. in a humidified 5% CO2atmosphere. The non-adherent cells were removed by gently washing the cells with PBS. The adherent fraction was quantitated using MTT assays as previously described (Narla, Supra).
U87 glioblastoma and MDA-MD-231 breast cancer cells were preincubated with various concentrations of [VO(SO4)(Me2-Phen)2] and processed for adhesion assays. [VO(SO4)(Me2-Phen)2] inhibited adhesion of the U87 and MDA-MB-231 cells to extracellular matrix (ECM) proteins, Pretreatment of cells with [VO(SO4)(Me2-Phen)2] inhibited the adhesion of U87 glioblastoma and MDA-MB-231 breast cancer cells to laminin-, fibronectin-, vitronectin- and collagen-coated plates. The inhibition of glioblastoma cell adhesion was concentration-dependent with mean (±SE) IC50 values from 3 independent experiments shown in the table below.

## Cc1ccnc2c1ccc1c(C)ccnc12.Cc1ccnc2c1ccc1c(C)ccnc12.O=S(=O)([O-])[O-].[O]=[V+2] [[VO(SO4)(Me2-Phen)2], bis(4,7-dimethyl-1,10-phenanthroline) sulfatooxovanadium (IV)]
[1]
  IC50: 2700 ± 400 nM
[2]
  IC50: 1900 ± 500 nM
[3]; MDA-MB-231, fibronectin-coated plates, read-out: IC50 inhibition of adhesion to fibronectin
  IC50: 1000 nM
[3]; MDA-MB-231, laminin-coated plates, read-out: IC50 inhibition of adhesion to laminin
  IC50: 1000 ± 100 nM
[3]; MDA-MB-231, type IV collagen-coated plates, read-out: IC50 inhibition of adhesion to collagen
  IC50: 1300 nM
[3]; MDA-MB-231, vitronectin-coated plates, read-out: IC50 inhibition of adhesion to vitronectin
  IC50: 1100 ± 100 nM
